{"source": "ChEMBL document CHEMBL1201862", "about": "“PubChem BioAssay data set” (2004)", "key": {"cells [1]": {"assay": "cells"}, "Major prion protein": {"target": "Major prion protein (Homo sapiens, UniProt P04156)", "type": "functional, cell-based"}, "14-3-3 protein gamma": {"target": "14-3-3 protein gamma (Homo sapiens, UniProt P61981)", "assay": "modulators of 14-3-3 gamma client binding – dose response (AID 711)", "type": "functional"}, "Vero": {"system": "Vero", "assay": "host cell cytotoxicity of antiviral hits, dose response, cytotoxicity control for West Nile virus antiviral project, secondary assay (AID 1650)", "type": "functional", "settings": "Chlorocebus sabaeus"}, "[2]": {"target": "Histone-lysine N-methyltransferase NSD2 (Homo sapiens, UniProt O96028)", "type": "biochemical"}, "Estrogen receptor beta [3]": {"target": "T1, Estrogen receptor beta (Homo sapiens, UniProt Q92731)", "assay": "ERβ–SRC-3 coactivator interaction inhibitors, confirmation, orthogonal assay, biochemical, ELISA, streptavidin-HRP readout (AID 1060)"}, "Estrogen receptor": {"target": "T2, Estrogen receptor (Homo sapiens, UniProt P03372)", "T2 sequence (P03372 whole entry)": "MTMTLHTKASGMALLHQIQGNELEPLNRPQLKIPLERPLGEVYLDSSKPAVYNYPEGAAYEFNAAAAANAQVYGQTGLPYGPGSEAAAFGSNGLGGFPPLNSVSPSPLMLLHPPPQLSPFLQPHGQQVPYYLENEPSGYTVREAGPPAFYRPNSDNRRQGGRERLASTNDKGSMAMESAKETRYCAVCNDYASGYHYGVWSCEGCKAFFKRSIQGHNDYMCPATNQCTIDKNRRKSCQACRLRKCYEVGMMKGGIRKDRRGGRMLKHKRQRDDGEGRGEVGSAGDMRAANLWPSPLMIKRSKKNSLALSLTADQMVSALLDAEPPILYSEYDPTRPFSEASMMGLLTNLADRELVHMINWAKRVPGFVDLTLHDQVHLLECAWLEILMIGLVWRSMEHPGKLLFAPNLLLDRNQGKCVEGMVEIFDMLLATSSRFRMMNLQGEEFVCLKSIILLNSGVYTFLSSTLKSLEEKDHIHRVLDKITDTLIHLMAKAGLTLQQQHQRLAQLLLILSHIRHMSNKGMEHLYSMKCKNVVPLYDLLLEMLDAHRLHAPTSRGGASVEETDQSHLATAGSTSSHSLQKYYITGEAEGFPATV"}, "Estrogen receptor beta [4]": {"target": "T1, Estrogen receptor beta"}, "[5]": {"target": "Mitogen-activated protein kinase 10 (Homo sapiens, UniProt P53779)", "assay": "Dose response biochemical screening assay for inhibitors of c-Jun N-Terminal Kinase 3 (JNK3). [Related pubchem assays: 746 ]"}, "[6]": {"target": "NAD-dependent protein deacylase sirtuin-5, mitochondrial (Homo sapiens, UniProt Q9NXA8)", "assay": "SIRT5 desuccinylase inhibitors, dose response, biochemical, fluorescence imaging, cherry-pick, set 5 (AID 720591);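 further: desuccinylation of succinyl peptide AMC substrate read as fluorescence after trypsin release; potency of inhibitors that lower fluorescence and may act on trypsin instead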"}, "[7]": {"assay": "Jurkat T cell cytotoxicity, dose response, cytotoxicity control for P. falciparum gametocyte viability project, luminescence (AID 1117277);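 further: potency reflects loss of cellular ATP meaning fewer viable cells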", "type": "functional, cell-based"}, "[8]": {"assay": "P. falciparum late gametocyte killing, dose response, luminescence (AID 1117278);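 further: gametocytes exposed to compound for 24 hours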", "type": "functional, cell-based"}, "[9]": {"target": "RNA-editing ligase 1, mitochondrial (Trypanosoma brucei brucei, UniProt P86926)", "assay": "TbREL1 ligase inhibitors, dose response, biochemical, fluorescence, Trypanosoma brucei (AID 1117295)", "type": "functional"}, "[10]": {"assay": "cytotoxicity toward NIH3T3 fibroblasts, dose response, counter-screen, cell-based, ATP luminescence, mouse fibroblasts (AID 2010);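 further: cells exposed to compound for about 90 hours before reading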", "type": "functional"}, "[11]": {"assay": "inhibitors of intracellular T. cruzi replication, confirmation, NIH3T3 host cells, beta-gal luminescence (AID 2044);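 further: luminescent beta-galactosidase reporter signal from transgenic T. cruzi replicating inside host cells; inhibitors lower the luminescence signal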", "type": "functional, cell-based"}, "cells [12]": {"assay": "cells", "remark": "listed apart in the source"}, "INS1": {"system": "INS1", "assay": "beta cell apoptosis inhibitors, cytokine rescue, dose response, luminescence, retest (AID 449756);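 further: cell death triggered by IL-1 beta plus TNF-alpha plus IFN-gamma mixture; protective hits raise ATP signal compared with cytokine alone wells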", "type": "functional, cell-based", "settings": "Rattus norvegicus"}, "Kallikrein-7": {"target": "Kallikrein-7 (Homo sapiens, UniProt P49862)", "assay": "Fluorescence Intensity-based biochemical primary high throughput dose response assay to identify activators of kallikrein-7 (K7) zymogen."}}, "note": "Active and inactive are the calls of the source.", "data": [{"smiles": "CCOC(=O)CSc1nc(-c2ccccc2)nc2ccc(F)cc12", "values": [{"measurement": "IC50", "setting": "cells [1]", "result": "> 138 µM (inactive)"}, {"measurement": "IC50", "setting": "Major prion protein", "result": "1.97 µM (active)"}]}, {"smiles": "CCOc1ccc2[nH]c(=O)c(CN(CC3COCCO3)C(=O)C3CC3)cc2c1", "note": "(configuration not stated)", "values": [{"measurement": "IC50", "setting": "14-3-3 protein gamma", "result": "> 50 µM (not active)"}]}, {"smiles": "CCN(CC)CCNCC1C(=O)O[C@@H]2C[C@@]3(C)CCC[C@H](C)C3=C[C@H]12", "note": "(some centres not stated)", "values": [{"measurement": "CC50", "setting": "Vero", "result": "> 100 µM (active)"}]}, {"smiles": "CCOc1ccc2[nH]c3c(NCCN(CC)CC)ncnc3c2c1", "values": [{"measurement": "AC50", "setting": "[2]", "result": "3.43 µM (active)"}]}, {"smiles": "Cc1occc1-c1nnc(SCc2cc(=O)n3cc(Br)ccc3n2)n1C", "values": [{"measurement": "IC50", "setting": "Estrogen receptor beta [3]", "result": "0.468 µM (not active)"}, {"measurement": "IC50", "setting": "Estrogen receptor", "result": "> 50 µM (not active)"}, {"measurement": "IC50", "setting": "Estrogen receptor beta [4]", "result": "> 50 µM (not active)"}]}, {"smiles": "O=C1NC(=O)c2c(NC(=O)C3CCCO3)cccc21", "note": "(configuration not stated)", "values": [{"measurement": "IC50", "setting": "[5]", "result": "56.2 µM (not active)"}]}, {"smiles": "CCCCC[C@H]1CN(Cc2ccccc2)C(=O)[C@@H]1CC(=O)NCc1ccccc1", "values": [{"measurement": "AC50", "setting": "[6]", "result": "14.9 µM (active)"}]}, {"smiles": "Cc1nnc(NC(=O)c2ccc(S(=O)(=O)N3CCc4ccccc4C3)cc2)o1", "values": [{"measurement": "IC50", "setting": "[7]", "result": "80.6 µM (inactive)"}, {"measurement": "IC50", "setting": "[8]", "result": "> 109 µM (inactive)"}]}, {"smiles": "Cc1ccc(C(C)C)c(OCCNCCc2ccccc2)c1", "values": [{"measurement": "IC50", "setting": "[9]", "result": "> 96.6 µM (inactive)"}]}, {"smiles": "CCCOC(=O)c1ccc(-[n+]2c(-c3ccccc3)cc(-c3ccccc3)cc2-c2ccccc2)cc1.[O-][Cl+3]([O-])([O-])[O-]", "values": [{"measurement": "EC50", "setting": "[10]", "result": "> 60 µM (not active)"}, {"measurement": "IC50", "setting": "[7]", "result": "6.87 µM (active)"}, {"measurement": "EC50", "setting": "[11]", "result": "< 0.1 µM (active)"}, {"measurement": "EC50", "setting": "cells [12]", "result": "0.1 µM (active)"}, {"measurement": "IC50", "setting": "[8]", "result": "> 109 µM (inactive)"}, {"measurement": "AC50", "setting": "INS1", "result": "1.82 µM (active)"}]}, {"smiles": "Cc1ccc2nc(N3C(=O)C(O)=C(C(=O)c4ccc(C)o4)C3c3ccc(O)cc3)sc2c1", "note": "(configuration not stated)", "values": [{"measurement": "AC50", "setting": "[6]", "result": "15.1 µM (active)"}]}, {"smiles": "COC(=O)c1c(-c2cccs2)csc1NC(=O)CN1CCOCC1", "values": [{"measurement": "IC50", "setting": "[5]", "result": "55.7 µM (not active)"}]}, {"smiles": "CN1CCN(C(=O)c2cc3nc(-c4ccco4)cc(C(F)(F)F)n3n2)CC1", "values": [{"measurement": "EC50", "setting": "Kallikrein-7", "result": "11.3 µM (inactive)"}]}]}
